Source: patent US20250115597A1, “TYK2 INHIBITORS AND COMPOSITIONS AND METHODS THEREOF” (LYNK PHARMACEUTICALS CO. LTD., priority 2021, published 2025)

Biological target: T1, Ba/F3-FL-TYK2-P760L cells (Homo sapiens, UniProt P29597, P760L, cells depend on it)
T1 construct: BaF3-FL-T2P760L (nM)
Experiment: Anti-proliferative assay, Ba/F3-FL-TYK2-P760L cells (Cell-Titer Glo)
Type: cell-based
Conditions: 72 h, read-out: BaF3-FL-T2P760L IC50
Method in brief: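 Ba/F3 cells made IL-3-independent by TEL-fused or full-length mutant JAK-family kinases, seeded at 2000/well and dosed after 24 h with 9 three-fold dilutions topping at 20 μM. Viability after 72 h at 37 °C, 5% CO2 by Cell-Titer Glo ATP luminescence.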

T1 sequence (P29597 whole entry P760L): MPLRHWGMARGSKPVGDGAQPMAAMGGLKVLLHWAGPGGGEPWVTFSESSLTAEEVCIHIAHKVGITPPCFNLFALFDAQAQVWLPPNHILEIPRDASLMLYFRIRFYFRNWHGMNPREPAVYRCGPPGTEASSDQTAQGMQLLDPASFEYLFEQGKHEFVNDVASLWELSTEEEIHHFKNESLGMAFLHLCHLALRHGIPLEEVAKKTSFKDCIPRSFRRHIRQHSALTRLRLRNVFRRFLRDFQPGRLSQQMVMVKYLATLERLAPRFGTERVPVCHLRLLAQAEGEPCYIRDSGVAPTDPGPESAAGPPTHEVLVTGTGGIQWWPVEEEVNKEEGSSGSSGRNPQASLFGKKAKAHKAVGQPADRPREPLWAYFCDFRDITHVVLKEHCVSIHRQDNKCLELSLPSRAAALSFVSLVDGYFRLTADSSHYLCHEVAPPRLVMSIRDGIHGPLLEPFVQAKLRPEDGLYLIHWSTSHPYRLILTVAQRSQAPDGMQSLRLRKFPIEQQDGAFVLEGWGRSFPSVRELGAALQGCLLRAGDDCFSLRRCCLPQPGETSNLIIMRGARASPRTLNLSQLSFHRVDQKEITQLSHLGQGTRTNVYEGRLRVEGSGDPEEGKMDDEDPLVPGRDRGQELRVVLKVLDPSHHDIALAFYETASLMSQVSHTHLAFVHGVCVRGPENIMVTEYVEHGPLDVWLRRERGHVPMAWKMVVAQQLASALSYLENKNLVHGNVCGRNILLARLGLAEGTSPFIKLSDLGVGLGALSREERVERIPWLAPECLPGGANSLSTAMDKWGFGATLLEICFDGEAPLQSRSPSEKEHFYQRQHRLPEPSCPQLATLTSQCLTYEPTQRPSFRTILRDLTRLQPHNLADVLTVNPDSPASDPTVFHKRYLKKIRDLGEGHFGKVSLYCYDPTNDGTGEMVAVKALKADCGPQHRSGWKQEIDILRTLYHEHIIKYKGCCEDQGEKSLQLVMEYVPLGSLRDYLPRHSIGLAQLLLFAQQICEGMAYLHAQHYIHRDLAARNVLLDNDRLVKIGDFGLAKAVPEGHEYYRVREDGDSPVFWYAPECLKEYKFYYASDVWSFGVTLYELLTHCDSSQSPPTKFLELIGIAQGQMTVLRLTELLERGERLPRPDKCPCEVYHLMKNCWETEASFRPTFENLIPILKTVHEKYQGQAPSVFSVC

| Structure (SMILES) | GI50 |
| --- | --- |
| [2H]C([2H])([2H])NC(=O)c1cnc(NC(=O)C2CC2)cc1Nc1ccc2nnn(CC)c2c1OC [Example 164, 6-(Cyclopropanecarbonylamino)-4-[(3-ethyl-4-methoxy-benzotriazol-5-yl)amino]-N-(trideuteriomethyl)pyridine-3-carboxamide] | 0.349 µM |
| [2H]C([2H])([2H])NC(=O)c1cnc(NC(=O)[C@H]2C[C@H](C#N)C2)cc1Nc1ccc2cnn(CC)c2c1OC [Example 128B, 6-((Trans)-3-cyanocyclobutane-1-carboxamido)-4-((1-ethyl-7-methoxy-1H-indazol-6-yl)amino)-N-(methyl-d3)nicotinamide] | 1.71 µM |
| [2H]C([2H])([2H])NC(=O)c1cnc(NC(=O)C2CC2)cc1Nc1cn(C)c2ccn(C3CCC3)c(=O)c12 [Example 111, 4-((5-Cyclobutyl-1-methyl-4-oxo-4,5-dihydro-1H-pyrrolo[3,2-c]pyridin-3-yl)amino)-6-(cyclopropanecarboxamido)-N-(methyl-d3)nicotinamide] | 0.153 µM |
| [2H]C([2H])([2H])NC(=O)c1cnc(NC(=O)[C@H]2C[C@@H](C#N)C2)cc1Nc1ccc2cnn(CC)c2c1OC [Example 128A, 6-((Cis)-3-cyanocyclobutane-1-carboxamido)-4-((1-ethyl-7-methoxy-1H-indazol-6-yl)amino)-N-(methyl-d3)nicotinamide] | 0.736 µM |
| [2H]C([2H])([2H])NC(=O)c1cnc(NC(=O)C2CC2)cc1Nc1ccc2onc(CC)c2c1OC [Example 233, 6-(Cyclopropanecarboxamido)-4-((3-ethyl-4-methoxybenzo[d]isoxazol-5-yl)amino)-N-(methyl-d3)nicotinamide] | 3.27 µM |
| CNC(=O)c1nnc(Nc2ccc(F)cn2)cc1Nc1cccc(OC2CCOCC2)c1OC [Example 25, 6-((5-Fluoropyridin-2-yl)amino)-4-((2-methoxy-3-((tetrahydro-2H-pyran-4-yl)oxy)phenyl)amino)-N-methylpyridazine-3-carboxamide] | 7.82 µM |
| CNC(=O)c1cnc(NC(=O)C2CC2)nc1Nc1cccc(OC2CCOCC2)c1OC [Example 7, 2-(Cyclopropanecarboxamido)-4-((2-methoxy-3-((tetrahydro-2H-pyran-4-yl)oxy)phenyl)amino)-N-methylpyrimidine-5-carboxamide] | 8.02 µM |
| [2H]C([2H])([2H])NC(=O)c1cnc(NC(=O)C2CC2)cc1Nc1cn(C)c2ccn(C(C)C(F)(F)F)c(=O)c12 (single isomer, unassigned) [Example 190B, (S*)-6-(Cyclopropanecarboxamido)-N-(methyl-d3)-4-((1-methyl-4-oxo-5-(1,1,1-trifluoropropan-2-yl)-4,5-dihydro-1H-pyrrolo[3,2-c]pyridin-3-yl)amino)nicotinamide] | 0.327 µM |
| [2H]C([2H])([2H])NC(=O)c1cnc(NC(=O)C2CC2)cc1Nc1cc(F)c2cnn(C([2H])([2H])C([2H])([2H])[2H])c2c1OC [Example 142, 6-(Cyclopropanecarboxamido)-4-((1-(ethyl-d5)-4-fluoro-7-methoxy-1H-indazol-6-yl)amino)-N-(methyl-d3)nicotinamide] | 0.169 µM |
| [2H]C([2H])([2H])NC(=O)c1cnc(Nc2ccn(C)n2)nc1Nc1cccc(-c2ncn(C)n2)c1OC [Example 60, 4-((2-Methoxy-3-(1-methyl-1H-1,2,4-triazol-3-yl)phenyl)amino)-N-(methyl-d3)-2-((1-methyl-1H-pyrazol-3-yl)amino)pyrimidine-5-carboxamide] | 1.41 µM |
| [2H]C([2H])([2H])NC(=O)c1cnc(NC(=O)[C@@H]2C[C@H]2F)cc1Nc1cn(C)c2ccn(CC)c(=O)c12 [Example 103, 4-[(5-Ethyl-1-methyl-4-oxo-pyrrolo[3,2-c]pyridin-3-yl)amino]-6-[[(1S,2R)-2-fluorocyclopropanecarbonyl]amino]-N-(methyl-d3)pyridine-3-carboxamide] | 0.761 µM |
| [2H]C([2H])([2H])NC(=O)c1cnc(NC(=O)C2CC2)cc1Nc1csc2cnn(CCOCC)c(=O)c12 [Example 183, 6-(Cyclopropanecarboxamido)-4-((5-(2-ethoxyethyl)-4-oxo-4,5-dihydrothieno[2,3-d]pyridazin-3-yl)amino)-N-(methyl-d3)nicotinamide] | 0.71 µM |
| [2H]C([2H])([2H])NC(=O)c1cnc(NC(=O)C2CC2)cc1Nc1csc2cnn(CCOC)c(=O)c12 [Example 179, 6-(Cyclopropanecarboxamido)-4-((5-(2-methoxyethyl)-4-oxo-4,5-dihydrothieno[2,3-d]pyridazin-3-yl)amino)-N-(methyl-d3)nicotinamide] | > 5 µM |
| [2H]C([2H])([2H])NC(=O)c1cnc(NC(=O)C2CC2)cc1Nc1csc2c(F)cn(C)c(=O)c12 [Example 177, 6-(Cyclopropanecarboxamido)-4-((7-fluoro-5-methyl-4-oxo-4,5-dihydrothieno[3,2-c]pyridin-3-yl)amino)-N-(methyl-d3)nicotinamide] | 0.091 µM |
| [2H]C([2H])([2H])NC(=O)c1nnc2cc1Nc1cc(cc(-c3ncn(C)n3)c1OC)CNCc1nc(ccc1F)N2 [Example 87, 18-Fluoro-10-methoxy-N-(methyl-d3)-11-(1-methyl-1H-1,2,4-triazol-3-yl)-2,4,5,8,15,21-hexaazatetracyclo[15.3.1.1^{3,7}.1^{9,13}]tricosa-1(20),3,5,7(23),9(22),10,12,17(21),18-nonaene-6-carboxamide] | 0.584 µM |
| CNC(=O)c1cnc(NC(=O)C2CC2)nc1Nc1cn(C)c2ccn(C)c(=O)c12 [Example 1, 2-(Cyclopropanecarboxamido)-4-((1,5-dimethyl-4-oxo-4,5-dihydro-1H-pyrrolo[3,2-c]pyridin-3-yl)amino)-N-methylpyrimidine-5-carboxamide] | 0.483 µM |
| [2H]C([2H])([2H])NC(=O)c1cnc2nc1Nc1cc(cc(-c3ncn(C)n3)c1OC)COCc1cc(F)cc(n1)N2 [Example 81, 19-Fluoro-10-methoxy-N-(methyl-d3)-11-(1-methyl-1H-1,2,4-triazol-3-yl)-15-oxa-2,4,8,21,23-pentaazatetracyclo[15.3.1.1^{3,7}.1^{9,13}]tricosa-1(21),3,5,7(23),9(22),10,12,17,19-nonaene-6-carboxamide] | 0.33 µM |
| [2H]C([2H])([2H])NC(=O)c1cnc(Nc2ccc(F)cc2)nc1Nc1cn(C)c2ccn(C)c(=O)c12 [Example 4, 4-((1,5-Dimethyl-4-oxo-4,5-dihydro-1H-pyrrolo[3,2-c]pyridin-3-yl)amino)-2-((4-fluorophenyl)amino)-N-(methyl-d3)pyrimidine-5-carboxamide] | 0.548 µM |
| [2H]C([2H])([2H])NC(=O)c1cnc(Nc2cc(F)ccn2)cc1Nc1cn(C)c2c(Cl)cn(CC)c(=O)c12 [Example 162, 4-((7-Chloro-5-ethyl-1-methyl-4-oxo-4,5-dihydro-1H-pyrrolo[3,2-c]pyridin-3-yl)amino)-6-((4-fluoropyridin-2-yl)amino)-N-(methyl-d3)nicotinamide] | 0.0259 µM |
| CCn1cc(Nc2cc(NC(=O)C3CC3)ncc2C(=O)NC)c2c(=O)n([C@@H](C)C(F)(F)F)cnc21 (single isomer, unassigned) [Example 254B, (S*)-6-(cyclopropanecarboxamido)-4-((7-ethyl-4-oxo-3-(1,1,1-trifluoropropan-2-yl)-4,7-dihydro-3H-pyrrolo[2,3-d]pyrimidin-5-yl)amino)-N-(methyl-d3)nicotinamide] | 0.934 µM |
